# Results as given in patent US20250122174A1 (Shenzhen Yuanli Shenwan Innovative Medicine Co., Ltd., priority 2022, published 2025).
# Target: HPK1 (Homo sapiens (Human), UniProt Q92918)
# Experiment: HPK1 Inhibition Assay (ADP-Glo kinase assay)
# Assay type: biochemical
# Details: ATP 10 μM
# Experimental: A stock solution of 10 mM test compound was prepared in DMSO. The compound was prepared by 5-fold and 10-point serial dilutions with HPK1 kinase assay buffer. The HPK1 kinase assay buffer contained 40 mM Tris, pH 7.5; 20 mM MgCl2, 0.1 mg/ml BSA, and 50 μM DTT. 7.5 ng/μl of Active HPK1 (Promega, V4098) and 0.1 μg/ml MBP substrate protein were added to the reaction system. The final concentration of ATP in the HPK1 kinase reaction system was 10 μM. Serial diluted compounds were transferred to the reaction system and incubated at room temperature for 1 hr. 5 μL of ADP-Glo™ Reagent (Promega, V9101) was added and incubated for 40 min to stop the kinase reaction and deplete the unconsumed ATP. […] The luminescence was measured with a plate-reading luminometer.
# Sequence of HPK1 (Q92918 1-346 limits assumed): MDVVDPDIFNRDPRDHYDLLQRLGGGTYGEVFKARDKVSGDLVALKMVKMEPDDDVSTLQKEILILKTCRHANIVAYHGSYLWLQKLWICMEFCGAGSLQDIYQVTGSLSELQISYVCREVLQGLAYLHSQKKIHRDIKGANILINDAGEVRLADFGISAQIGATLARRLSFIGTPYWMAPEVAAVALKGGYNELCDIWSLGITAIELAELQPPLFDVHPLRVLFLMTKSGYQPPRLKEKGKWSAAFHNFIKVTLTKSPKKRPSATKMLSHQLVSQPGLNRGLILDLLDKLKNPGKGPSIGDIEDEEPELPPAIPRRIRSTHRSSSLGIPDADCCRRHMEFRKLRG
row,IC50,SMILES
1,< 100 nM,"CC(C)n1ncc2c(N3C[C@H](N)C(C)(C)C3)c(NC(=O)c3ccc(=O)n(-c4c(F)cccc4F)n3)ccc21 [Example 186, (R)-N-(4-(4-amino-3,3-dimethylpyrrolidin-1-yl)-1-isopropyl-1H-indazol-5-yl)-1-(2,6-difluorophenyl)-6-oxo-1,6-dihydropyridazine-3-carboxamide]"
2,< 100 nM,"Cn1c(C(C)(C)C)nc2c(N3CC[C@@](C)(N)C3)c(NC(=O)c3ccc(=O)n(-c4c(F)cccc4F)n3)ccc21 (single isomer, unassigned) [Example 100, ®-N-(4-(3-amino-3-methylpyrrolidin-1-yl)-2-(tert-butyl)-1-methyl-1H-benzo 111 midazolezol-5-yl)-1-(2,6-difluorophenyl)-6-oxo-1,6-dihydropyridazine-3-carboxamide]"
3,< 100 nM,"N[C@H]1CN(c2c(NC(=O)c3ccc(=O)n(-c4c(F)cccc4F)n3)ccc3c2cnn3[C@@H]2CCOC2)CC12CC2 [Example 250, N-(4-((R)-7-amino-5-azaspiro[2.4]heptan-5-yl)-1-((R)-tetrahydrofuran-3-yl)-1H-indazol-5-yl)-1-(2,6-difluorophenyl)-6-oxo-1,6-dihydropyridazine-3-carboxamide]"
4,< 100 nM,"CN[C@@H]1CCN(c2c(NC(=O)c3ccc(=O)n(-c4c(F)cccc4F)n3)ccc3c2nc(C(C)C)n3C)C1 [Example 127, (R)-1-(2,6-difluorophenyl)-N-(2-isopropyl-1-methyl-4-(3-(methylamino)pyrrolidin-1-yl)-1H-benzo[d]imidazol-5-yl)-6-oxo-1,6-dihydropyridazine-3-carboxamide]"
5,< 100 nM,"CC(C)c1nc2c(N3CC[C@](N)(CO)C3)c(NC(=O)c3ccc(=O)n(-c4c(F)cccc4F)n3)ccc2n1C (single isomer, unassigned) [Example 125]"
6,< 100 nM,"Cn1c(C2CC2)nc2c(N3CC[C@H](N)C3)c(NC(=O)c3ccc(=O)n(-c4c(F)cccc4F)n3)ccc21 [Example 97, N-{4-[(35)-3-aminopyrrolidin-1-yl]-2-cyclopropyl-1-methyl-1,3-benzodiazol-5-yl}-1-(2,6-difluorophenyl)-6-oxopyridazine-3-carboxamide]"
7,< 100 nM,"CC1(n2cc3c(N4C[C@H](N)C5(CC5)C4)c(NC(=O)c4ccc(=O)n(-c5c(F)cccc5F)n4)ccc3n2)CC1 [Example 311, (R)-N-(4-(7-amino-5-azaspiro[2.4]heptan-5-yl)-2-(1-methylcyclopropyl)-2H-indazol-5-yl)-1-(2,6-difluorophenyl)-6-oxo-1,6-dihydropyridazine-3-carboxamide]"
8,< 100 nM,"Cn1c(-c2ccncc2F)nc2c(N3CC[C@H](N)C3)c(NC(=O)c3ccnn(-c4c(F)cccc4F)c3=O)ccc21 [Example 42, N-{4-[(35)-3-aminopyrrolidin-1-yl]-2-(3-fluoropyridin-4-yl)-1-methyl-1,3-benzodiazol-5-yl}-2-(2,6-difluorophenyl)-3-oxopyridazine-4-carboxamide]"
9,< 100 nM,"C[C@@H]1CN(c2c(NC(=O)c3ccc(=O)n(-c4c(F)cccc4F)n3)ccc3nn(C45CCC(CC4)C5)cc23)C[C@@H]1N [Example 306, N-(4-((3R,4R)-3-amino-4-methylpyrrolidin-1-yl)-2-(bicyclo[2.2.1]heptan-1-yl)-2H-indazol-5-yl)-1-(2,6-difluorophenyl)-6-oxo-1,6-dihydropyridazine-3-carboxamide]"
10,< 100 nM,"CC[C@H](C)n1ncc2c(N3C[C@@H](C)[C@@H](N)C3)c(NC(=O)c3ccc(=O)n(-c4c(F)cccc4F)n3)ccc21 [Example 256, N-(4-((3R,4R)-3-amino-4-methylpyrrolidin-1-yl)-1-((S)-sec-butyl)-1H-indazol-5-yl)-1-(2,6-difluorophenyl)-6-oxo-1,6-dihydropyridazine-3-carboxamide]"
11,< 100 nM,"C[C@@H]1CN(c2c(NC(=O)c3ccc(=O)n(-c4c(F)cccc4F)n3)ccc3nn(C45CC(C4)C5)cc23)C[C@@H]1N [Example 316, N-(4-((3R,4R)-3-amino-4-methylpyrrolidin-1-yl)-2-(bicyclo[1.1.1]pentan-1-yl)-2H-indazol-5-yl)-1-(2,6-difluorophenyl)-6-oxo-1,6-dihydropyridazine-3-carboxamide]"
12,< 100 nM,"N#Cc1ccncc1-c1ccc(NC(=O)c2ccc(=O)n(-c3c(F)cccc3F)n2)c(N2CCC(O)CC2)c1 [Example 349, N-(4-(4-cyanopyridin-3-yl)-2-(4-hydroxypiperidin-1-yl)phenyl)-1-(2,6-difluorophenyl)-6-oxo-1,6-dihydropyridazine-3-carboxamide]"
13,< 100 nM,"N[C@@H]1CCN(c2c(NC(=O)c3ccc(=O)n(-c4c(F)cccc4F)n3)ccc3c2cnn3CC2CC2)C1 [Example 295, (R)-N-(4-(3-aminopyrrolidin-1-yl)-1-(cyclopropylmethyl)-1H-indazol-5-yl)-1-(2,6-difluorophenyl)-6-oxo-1,6-dihydropyridazine-3-carboxamide]"
14,< 100 nM,"CC(C)n1ncc2c(N3C[C@@H]4[C@@H](N)[C@@H]4C3)c(NC(=O)c3ccc(=O)n(-c4c(F)cccc4F)n3)ccc21 [Example 211, N-(4-((1R,5S,6s)-6-amino-3-azabicyclo[3.1.0]hexan-3-yl)-1-isopropyl-1H-indazol-5-yl)-1-(2,6-difluorophenyl)-6-oxo-1,6-dihydropyridazine-3-carboxamide]"
15,< 100 nM,"CC(C)C(C)(C)n1cc2c(N3C[C@H](N)C4(CC4)C3)c(NC(=O)c3ccc(=O)n(-c4c(F)cccc4F)n3)ccc2n1 [Example 248, (R)-N-(4-(7-amino-5-azaspiro[2.4]heptan-5-yl)-2-(2,3-dimethylbutan-2-yl)-2H-indazol-5-yl)-1-(2,6-difluorophenyl)-6-oxo-1,6-dihydropyridazine-3-carboxamide]"
16,< 100 nM,"CC(C)c1nc2c(N3CC[C@@](C)(N)C3)c(NC(=O)c3ccc(=O)n(-c4c(F)cccc4F)n3)ccc2n1C [Example 123, (R)-N-(4-(3-amino-3-methylpyrrolidin-1-yl)-2-isopropyl-1-methyl-1H-benzo[d]imidazol-5-yl)-1-(2,6-difluorophenyl)-6-oxo-1,6-dihydropyridazine-3-carboxamide]"
17,< 100 nM,"CC(C)Cn1ncc2c(N3CC[C@@H](N)C3)c(NC(=O)c3ccc(=O)n(-c4c(F)cccc4F)n3)ccc21 [Example 294, (R)-N-(4-(3-aminopyrrolidin-1-yl)-1-isobutyl-1H-indazol-5-yl)-1-(2,6-difluorophenyl)-6-oxo-1,6-dihydropyridazine-3-carboxamide]"
18,< 100 nM,"C[C@@H]1CN(c2c(NC(=O)c3ccc(=O)n(-c4c(F)cccc4F)n3)ccc3c2cnn3C2COC2)C[C@@H]1N [Example 258, N-(4-((3R,4R)-3-amino-4-methylpyrrolidin-1-yl)-1-(oxetan-3-yl)-1H-indazol-5-yl)-1-(2,6-difluorophenyl)-6-oxo-1,6-dihydropyridazine-3-carboxamide]"
19,< 100 nM,"CC(C)n1cc2c(N3C[C@@H]4C[C@H]3CN4)c(NC(=O)c3ccc(=O)n(-c4c(F)cccc4F)n3)cc(F)c2n1 [Example 233, N-(4-((1S,4S)-2,5-diazabicyclo[2.2.1]heptan-2-yl)-7-fluoro-2-isopropyl-2H-indazol-5-yl)-1-(2,6-difluorophenyl)-6-oxo-1,6-dihydropyridazine-3-carboxamide]"
